Literature values as cited in patent US11116769B2, “Tadalafil free base-containing film dosage form containing polyethylene glycol-based polymer and/or vinyl pyrrolidone-based polymer as dispersion stabilizer” (CTC BIO, INC., priority 2013, dated 2021).

- solubility in organic solvents (some organic solvents such as methanol, ethanol and acetone): slightly soluble
- solubility in water (water): practically insoluble
- water solubility (water at 25° C., from U.S. Pat. No. 6,841,167): about 2 μg per 1 milliliter (mL)
Compound: CN1CC(=O)N2[C@H](c3ccc4c(c3)OCO4)c3[nH]c4ccccc4c3C[C@@H]2C1=O [Tadalafil, (6R-trans)-6-(1,3-benzodioxol-5-yl)-2,3,6,7,12,12a-hexahydro-2-methyl-pyrazino[1′,2′:1,6]pyrido[3,4-b]indole-1,4-dione]
